Results published in patent US9457007B2, “Prenylflavanone compounds for modulating diabetes” (NATUREWISE BIOTECH & MEDICALS CORPORATION, priority 2013, dated 2016).
“Also recorded” adds a separate entry of the source.

How the values were obtained:
Type in all cases: in vivo
[1] = test system: STZ-induced diabetic mice; assay: Blood glucose in the STZ-induced diabetic mice; conditions: propolins study; for modulation of blood glucose: 8 weeks, dose 1.2-2.4% of the Januvia dose
Method: The male FBV mice of 5 weeks old, commercially available from BioLASCO Co., Ilan, Taiwan, were acclimatized for 1 week, prior to administration of streptozotocin (STZ) at 40 mg/kg for 3 consecutive days. STZ was formulated with an aqueous solution of sodium citrate (pH 4.5, 73.5 mg/5 mL) on ice, and then 100 μL of the formulation was dosed by intraperitoneal injection. From day 2 in the 3 consecutive days, the mice were dosed with 5% (w/v) glucose water for 6 consecutive days. After allowing the mice to rest for 10 days, blood glucose levels were measured. After administration of STZ for 1 week, about 5 μL of blood was collected from each of the mice at the tail vein, and was assayed for blood glucose by a blood glucose monitor and chip (FORA, California, U.S.A.). After 1 week, blood glucose was detected once more, and whether blood glucose was smooth or not was evaluated prior to grouping. The values of blood glucose in all of the mice induced to suffer from diabetes were brought to fall within about 300±50 mg/dL. […]
(§1) An appropriate amount of propolins and its relevant derivatives, such as PPA, PPB, PPC, PPD, PPE, PPF, PPG, PPH, PPI or PPJ, was dissolved with 3 ml 95% alcohol and then uniformly mixed with 80 μL Tween 80; after concentrating under reduced pressure for removal of alcohol, it was uniformly dispersed into 16 ml water to give a liquid mixture of propolins. This mixture was fed by 200 μL gavage into the diabetic mice designated as the propolins and its relevant derivative group.
(§2) Sitagliptin (trade name: Januvia), commercially available from American Merck Co., was used as the DPP4 inhibitor. An appropriate amount of sitagliptin was dissolved in water to provide a final concentration allowing administration of the mice at a dose of 370 mg/kg. In the following example, Januvia was representative of the DPP4 inhibitors and acted as a positive control group for reference.
(§3) Tween 80 (80 μL) was mixed into 16 ml water to give a placebo, which was fed by 200 μL gavage into the STZ-induced diabetic mice or normal mice (i.e., the mice without induction for diabetes). Oral gavage was carried out once at a fixed time each day, and weight, feedstuff intake and water intake were measured weekly until tests were finished at 12-13 weeks.

[2] = test system: STZ-induced diabetic mice; assay: Water intake of the diabetic mice; conditions: propolins study
Method: (§4) The male FBV mice of 5 weeks old, commercially available from BioLASCO Co., Ilan, Taiwan, were acclimatized for 1 week, prior to administration of streptozotocin (STZ) at 40 mg/kg for 3 consecutive days. STZ was formulated with an aqueous solution of sodium citrate (pH 4.5, 73.5 mg/5 mL) on ice, and then 100 μL of the formulation was dosed by intraperitoneal injection. From day 2 in the 3 consecutive days, the mice were dosed with 5% (w/v) glucose water for 6 consecutive days. After allowing the mice to rest for 10 days, blood glucose levels were measured. After administration of STZ for 1 week, about 5 μL of blood was collected from each of the mice at the tail vein, and was assayed for blood glucose by a blood glucose monitor and chip (FORA, California, U.S.A.). After 1 week, blood glucose was detected once more, and whether blood glucose was smooth or not was evaluated prior to grouping. The values of blood glucose in all of the mice induced to suffer from diabetes were brought to fall within about 300±50 mg/dL.
(§5) An appropriate amount of the Taiwan Green Propolis alcohol extract was dissolved with 3 ml 95% alcohol and then uniformly mixed with 80 μL Tween 80 as a cosolvent; after concentrating under reduced pressure for removal of alcohol, it was dispersed into 16 ml water to give a liquid mixture of the Taiwan Green Propolis extract. This mixture was fed by 200 μL gavage into the diabetic mice designated as the Taiwan Green Propolis extract group.
as §1, §2, §3

[3] = test system: STZ-induced diabetic mice; assay: Feedstuff intake of the diabetic mice; conditions: propolins study
Method: as §4, §5, §1, §2, §3

[4] = test system: STZ-induced diabetic mice; assay: Oral glucose tolerance test (OGTT); set-up: reduction of AUC compared with the STZ group / extent of reduction of AUC compared with the STZ group: concentration or dose not given beside the values; conditions: propolins study; for AUC value for blood glucose (integral area) / extent of reduction of AUC compared with the STZ group: OGTT
Method: as §4
After administration of the testing substance to the animals for 12 weeks, the OGTT test was performed for evaluation of secretion and effects of insulin. All of the mice in the test were administered with the testing substance and then fasted for 4 hours prior to blood sampling at the first point called point 0. Afterwards, the mice were fed by oral gavage with 200 μL glucose in water, equivalent to a dose of 1.0 g/kg. After administration, blood was collected for an assay of blood glucose at 15, 30, 60, 120 and 180 minutes, respectively. Therefore, a total of 6 points, including points at 0, 15, 30, 60, 120 and 180 minutes, were obtained. About 5 μL of blood was collected from each of the mice at the tail vein and was then assayed for blood glucose by the blood glucose monitor and chip (FORA, California, U.S.A.). The blood glucose values at the Y-axis were plotted against the time points at the X-axis. Each group was calculated for an area under curve for comparison. The efficacy in regulation of blood glucose was evaluated by the area showing a relationship between the testing substance and secretion and effects of insulin.

[5] = after administration for 8 weeks by gavage daily, PPC 9.0, PPD 6.75, PPF 4.5, PPG 4.5, Januvia 370 mg/kg/mouse
[6] = 0 point, PPC 9.0, PPD 6.75, PPF 4.5, PPG 4.5, DPP4I 370 mg/kg/mouse
[7] = 30-minute time point after glucose in water

| Structure (SMILES) | modulation of blood glucose [1] | blood glucose [1, 5] [mg/dL] | blood glucose ([1]; at 0 week) [mg/dL] | water intake ([2]; at 1 week) [mL/mouse] | water intake ([2]; at 6 weeks) [mL/mouse] | water intake ([2]; at 8 weeks) [mL/mouse] | effect on feedstuff intake [3] | feedstuff intake ([3]; at 1 week) [g/mouse] | feedstuff intake ([3]; at 6 weeks) [g/mouse] | feedstuff intake ([3]; at 8 weeks) [g/mouse] | value of blood glucose in glucose tolerance test [4, 6] | value of blood glucose in glucose tolerance test [4, 7] | value of blood glucose in glucose tolerance test ([4]; 120-minute time point) | value of blood glucose in glucose tolerance test ([4]; 180-minute time point) [mg/dL] | AUC value for blood glucose (integral area) [4] | extent of reduction of AUC compared with the STZ group [4] [%] | effect on water intake [2] | efficacy in glucose tolerance test ([4]; compared to the STZ group) |
| --- | --- | --- | --- | --- | --- | --- | --- | --- | --- | --- | --- | --- | --- | --- | --- | --- | --- | --- |
| CC(C)=CCC/C(C)=C/Cc1cc([C@@H]2CC(=O)c3c(O)cc(O)cc3O2)cc(O)c1O [PPF, (S,E)-2-(3-(3,7-dimethylocta-2,6-dien-1-yl)-4,5-dihydroxyphenyl)-5,7-dihydroxy-3,4-dihydro-2H-1-benzopyran-4-one] | effectively highly modulated | 398 | 330 | 8.0 | 13.0 | 10.0 | significantly inhibited feedstuff intake | 6.3 | 7.0 | 6.3 | about 390 mg/dL | about 525 mg/dL | about 420 mg/dL | 430 | about 8.2×10^4 | 15.0 |  |  |
| CC(C)=CCC/C(C)=C/Cc1c([C@@H]2CC(=O)c3c(O)cc(O)cc3O2)ccc(O)c1O [PPD, (S,E)-2-(2-(3,7-dimethylocta-2,6-dien-1-yl)-3,4-dihydroxyphenyl)-5,7-dihydroxy-3,4-dihydro-2H-1-benzopyran-4-one] | highly effectively modulated | 400 | 330 | 8.0 | 14.0 | 16.0 | significantly inhibited feedstuff intake | 7.2 | 7.2 | 7.2 | about 380 mg/dL | about 530 mg/dL | about 490 mg/dL | 460 | about 8.7×10^4 | 16.2 | significantly inhibited water intake |  |
| CC(C)=CCC/C(C)=C/Cc1c([C@@H]2CC(=O)c3c(cc(O)c(CC=C(C)C)c3O)O2)ccc(O)c1O [PPG, (S,E)-2-(2-(3,7-dimethylocta-2,6-dien-1-yl)-3,4-dihydroxyphenyl)-5,7-dihydroxy-6-(3-methylbut-2-en-1-yl)-3,4-dihydro-2H-1-benzopyran-4-one] | higher activity for modulation of blood glucose than DPP4I; also recorded: the most effective compound for modulating blood glucose | 298 | 330 | 6.5 | 9.0 | 9.0 | significantly inhibited feedstuff intake | 4.8 | 7.0 | 7.2 | about 385 mg/dL | about 525 mg/dL | about 380 mg/dL | 350 | about 7.8×10^4 | 31.7 |  | more excellent efficacy |
| CC(C)=CCC/C(C)=C/Cc1c(O)cc2c(c1O)C(=O)C[C@@H](c1ccc(O)c(O)c1)O2 [PPC, (S,E)-2-(3,4-dihydroxyphenyl)-6-(3,7-dimethylocta-2,6-dien-1-yl)-5,7-dihydroxy-3,4-dihydro-2H-1-benzopyran-4-one] | highly effectively modulated | 298 | 330 | 8.2 | 16.0 | 24.0 | significantly inhibited feedstuff intake | 7.2 | 8.0 | 7.9 | about 350 mg/dL | about 450 mg/dL | about 430 mg/dL | 400 | about 8.0×10^4 | 28.2 | significantly inhibited water intake |  |
